According to patent US10336768B2, “Pyrimidine compounds and methods using the same” (Yuma Therapeutics, Inc., priority 2014, dated 2019):
Converted amounts (≈) assume the structure as drawn. “And” between values parts separate entries of the source, which are not always exact repeats. Equal values may be shown once. Read-outs that look alike come from different tables or passages of the source. Marks after values point to notes of the source that are not given here.

How the values were obtained:
Hsp70 = assay: Hsp90 cell based functional assay (Western blot for Hsp70, Hsp90)
Description: Cells were treated with compounds of the invention for 24 h and then lysed in a buffer containing NP-40, orthovanadate, and protease inhibitors. Western blots were performed with antibodies specific to Hsp70, Hsp90, or actin (as control).

[1] = Mouse pharmacokinetics, plasma levels (LC-MS/MS); type: in vivo; conditions: for AUC(0-t): read-out: AUC(0-8 h); for half-life: read-out: Half life (t1/2) (converted)
Description: Plasma and brain samples were taken pre-dose and at post dose time points of pre-dose, 15 and 30 minutes, 1, 2, and 8 hours. The pre-dose group was represented by 5 animals, whereas the post-dose groups were represented by 3 animals.
Bioanalysis of mouse plasma samples for compound 20 was conducted by protein precipitation and LC-MS/MS with compound 22 as the internal standard. The method was based on a ‘generic assay’ and some method development was conducted to tailor that assay to the particular compound and internal standard. The eventual non-GLP assay was first tested by analyzing a bioanalytical run with spiked mouse plasma samples. The qualification run passed by the run acceptance criteria (see below). Bioanalysis was then conducted of plasma sample extracts and of brain sample homogenate extracts, using a calibration and quality control samples spiked in mouse plasma. The assay is described below.
Compound 20 and compound 22 were extracted from the mouse plasma matrix by protein precipitation. To 20.0 μL of sample was added 10.0 μL of internal standard working solution (1000 ng/mL in MeOH) and 200 μL of MeCN. The mixture was vortexed (5 sec) and centrifuged (14000 rpm, 5 min). The supernatant was then recovered and evaporated to dryness. The residue was redissolved in 100 μL of redissolving solution (80:20 v:v of mobile phases A:B). For analysis, 20.0 μL was injected in to the LC-MS/MS system.
All chromatography was done with a type 1100 liquid chromatograph (Agilent), equipped with an auto-injector. The analytical column was an Xbridge C18 3.5 μm 2.1×50 mm (Waters), employed at 50° C. The mobile phase was a gradient, composed of solvent A:1 g/L ammonium acetate in Milli-Q water, and solvent B: MeCN.
All experiments were done on an API 3000 triple quadrupole instrument (AB Sciex), operated in positive turbo-ionspray mode (‘TIS+’). The instrument parameters had been optimized during method development.
[…] Two sets of calibration samples were used, one set placed before and the other placed after the study samples. In addition, QC samples at 5 levels (two samples at each level) were included in the run, as performance indicators and for run acceptance.
Evaluation of pharmacokinetic parameters was conducted by calculation from the mean concentration (n=5 pre-dose, n=3 post-dose) at each time point.

SH-SY5Y-hTAU441 cells = assay: Cytotoxicity assay (MTT); type: cell-based; conditions: FIG. 6A
Description: SH-SY5Y-hTAU441 cell viability was determined using the MTT assay. […] SH-SY5Y cell viability may also be measured after 24 and 48 h with the CellTiter-Glo® assay that measures ATP-levels. In addition, cytotoxicity may be assessed using the Celigo® with live cell microscopic imaging and a GE InCell Analyzer 2000 to measure multiple outcomes including apoptosis markers, membrane permeability, and mitochondrial activity.

P-gp (MDR1) = assay: MDR1-MDCK permeability assay; type: in vitro ADME; conditions: dog, read-out: B→A/A→B asymmetry
From the text: (§1) Compounds may be assessed in MDR1-MDCK permeability assay or Caco-2 permeability assay to determine their permeability. Apical (A) to basal (B) permeability >3×10^−6 cm/sec and B→A/A→B asymmetry <3 for a compound are considered acceptable predictors of brain penetration, and compounds having such properties are unlikely to be P-glycoprotein (P-gp) substrates. Compound 20 has shown excellent permeability in MDR1-MDCK assay (A-B=28×10^−6 cm/s) with low asymmetry (B→A/A→B asymmetry=0.9).

[2] = tested on: P-glycoprotein (P-gp, MDR1); assay: MDR1-MDCK permeability assay; type: in vitro ADME; conditions: dog, apical to basal
From the text: as §1

[3] = Solubility in pH 7.4 buffer; type: physicochemical; conditions: pH 7.4, aqueous buffer, pH of 7.4
Description: Compound solubility was determined in pH 7.4 buffer. Aqueous solubility of greater than or equal to about 0.5 μM (e.g., greater than or equal to about 1 μM, greater than or equal to about 2 μM, greater than or equal to about 5 μM, greater than or equal to about 10 μM, greater than or equal to about 20 μM, or greater than or equal to about 30 μM) may indicate a compound having acceptable solubility for medical use, e.g., for treatment of a neurodegenerative disorder.

His-tagged-Hsp90 = tested on: T1, His-tagged-Hsp90; assay: Hsp90 biochemical assay (AlphaLISA); type: binding
T1 construct: fused on or other part: His tag (captured on Ni2+-coated beads)
Description: This assay employs biotinylated geldanamycin, His-tagged-Hsp90, and Ni^+2 coated beads. This assay is homogenous and miniaturized to 384-well plates. Measurement of binding activity was performed on an Envision reader. […] This assay is the primary assay for evaluating compounds of the invention.

[4] = mouse, plasma, Table 11, footnote: excluding IRN12 result
[5] = mouse, plasma, Table 12, footnote: including IRN12 result

Nc1nc(-c2c(Cl)cc(Cl)c3c2CCO3)c2[nH]ccc2n1 [compound 20, 4-(5,7-Dichloro-2,3-dihydrobenzofuran-4-yl)-5H-pyrrolo[3,2-d]pyrimidin-2-amine]
expression of Hsp70 (Hsp70; Western blot, FIG. 5B): increase in the expression of Hsp70
expression of Hsp90 (Hsp70; Western blot, FIG. 5B, relative to variation in concentration): expression of Hsp90 remains unchanged
EC50 (Hsp70; read-out: Hsp 70 agonist activity): > 10000 nM
Mean Group Concentration, plasma ([1]; 0.25 h): ^a Excluding IRN 12 result: 14950 ng/mL
Plasma concentration, individual animals ([1]; 15 minutes post dose (B_0.25), values above 8000 ng/mL out of range, indicative): 17,900 ^b ng/mL and 12,000 ^b ng/mL
Plasma concentration, individual animals ([1]; 30 minutes post dose (C_0.5), out of range (>8000 ng/mL), indicative): 11,500 ^b ng/mL and 10,500 ^b ng/mL and 11,100 ^b ng/mL
Plasma concentration, individual animals ([1]; 1 hour post dose (D_1)): 7,130 ng/mL and 7,470 ng/mL
Plasma concentration, individual animals ([1]; 2 hours post dose (E_2)): 4,180 ng/mL and 4,440 ng/mL
Plasma concentration, individual animals ([1]; 8 hours post dose (F_8)): 99.3 ng/mL and 22.5 ng/mL and 21.9 ng/mL
Kelimination ([1]; Table 11, footnote: excluding IRN12 result): 0.725 per hour (h^−1)
Kelimination ([1]; Table 12, footnote: including IRN12 result): 0.730 per hour (h^−1)
concentration at 0.25 h ([1]; mouse, plasma, 0.25 h, n=3 incl. IRN 12, read-out: Mean Group Concentration, plasma): 9970 ng/mL
concentration at 15 min ([1]; mouse, plasma, 15 minutes post dose (B_0.25), values above 8000 ng/mL out of range, indicative, read-out: Plasma concentration, individual animals): 2.66 ng/mL
concentration at 0.5 h ([1]; mouse, plasma, 0.50 h, read-out: Mean Group Concentration, plasma): 11000 ng/mL
concentration at 1 h ([1]; mouse, plasma, 1.00 h, read-out: Mean Group Concentration, plasma): 7160 ng/mL
concentration at 1 h ([1]; mouse, plasma, 1 hour post dose (D_1), read-out: Plasma concentration, individual animals): 6890 ng/mL
concentration at 2 h ([1]; mouse, plasma, 2.00 h, read-out: Mean Group Concentration, plasma): 4260 ng/mL
concentration at 2 h ([1]; mouse, plasma, 2 hours post dose (E_2), read-out: Plasma concentration, individual animals): 4150 ng/mL
concentration at 8 h ([1]; mouse, plasma, 8.00 h, read-out: Mean Group Concentration, plasma): 47.9 ng/mL
AUC(0-inf) [1, 4]: 27100 ng·h/mL
Cmax [1, 4]: 11000 ng/mL
Tmax [1, 4]: 30 min
AUC(0-t) [1, 4]: 27000 ng·h/mL
half-life [1, 4]: 57.6 min
AUC(0-inf) [1, 5]: 28300 ng·h/mL
Cmax [1, 5]: 15000 ng/mL
Tmax [1, 5]: 15 min
AUC(0-t) [1, 5]: 28300 ng·h/mL
half-life [1, 5]: 57 min
cell viability (SH-SY5Y-hTAU441 cells): did not affect cell viability
efflux ratio (P-gp (MDR1)): 0.9
Papp A→B [2]: 28 ×10⁻⁶ cm/s
solubility [3]: 30 µM (≈ 9.64 µg/mL)
IC50 (His-tagged-Hsp90; AlphaLISA, FIG. 5A, read-out: Hsp90 inhibitory activity IC50): 740 ± 100 nM
IC50 (His-tagged-Hsp90; IC50 class, AlphaLISA (primary assay), read-out: Hsp90 inhibitory activity): < 1000 nM
